Key:
Assay type in all cases: biochemical
mICE = target: T1, mICE (Mus musculus, UniProt P29452); assay: Fluorescence enzyme assay, IC50 determination, ICE; settings: Table 3; method of Preparation 3A; read-out: mICE I50
T1 sequence (P29452 123-296 limits assumed): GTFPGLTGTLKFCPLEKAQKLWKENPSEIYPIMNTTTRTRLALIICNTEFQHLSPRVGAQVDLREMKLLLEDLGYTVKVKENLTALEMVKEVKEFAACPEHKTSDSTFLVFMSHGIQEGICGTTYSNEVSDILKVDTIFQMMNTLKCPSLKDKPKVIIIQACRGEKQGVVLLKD
T1 sequence (P29452 315-402 limits assumed): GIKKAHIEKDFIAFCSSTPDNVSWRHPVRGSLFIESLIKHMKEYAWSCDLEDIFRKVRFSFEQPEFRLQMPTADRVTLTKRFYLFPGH
Protocol: (§1) Fluorescence enzyme assays detecting the activity of the compounds of Formula 1 utilizing the recombinant ICE and CPP32 enzymes are performed essentially according to Thornberry et al. (Nature, 356:768:774 (1992)) and Nicholson et al. (Nature, 376:37–43 (1995)) respectively, (herein incorporated by reference) in 96 well microtiter plates. The substrate is Acetyl-Tyr-Val-Ala-Asp-amino-4-methylcoumarin (AMC) for the ICE assay and Acetyl-Asp-Glu-Val-Asp-amino-4-methylcoumarin for the CPP32, Mch2, Mch3 and Mch5 assays. Enzyme reactions are run in ICE buffer (25 mM HEPES, 1 mM EDTA, 0.1% CHAPS, 10% sucrose, pH 7.5) containing 2 mM DTT at room temperature in duplicate.
(§2) The enzyme and the compound of Formula I to be assayed are allowed to preincubate in the microtitre plate wells for 30 minutes at room temperature prior to the addition of substrate to initiate the reaction. Fluorescent AMC product formation is monitored for one hour at room temperature by measuring the fluorescence emission at 460 nm using an excitation wavelength of 360 nm. The fluorescence change in duplicate (control) wells are averaged and the mean values are plotted as a function of inhibitor concentration to determine the inhibitor concentration producing 50% inhibition (IC50). The results of this assay are set forth below in Table 1 and in Table 3 (for Table 3, see Examples 11 through 52).
(§3) The reference compound for this assay was Cbz-ValAlaAsp-H and the values are denoted in Table 1 as “Reference”.

CPP32 = target: T2, CPP32 (Homo sapiens, UniProt P42574); assay: Fluorescence enzyme assay, IC50 determination, CPP32; settings: Table 3; method of Preparation 3A; read-out: CPP32 I50
T2 sequence (P42574 29-175 limits assumed): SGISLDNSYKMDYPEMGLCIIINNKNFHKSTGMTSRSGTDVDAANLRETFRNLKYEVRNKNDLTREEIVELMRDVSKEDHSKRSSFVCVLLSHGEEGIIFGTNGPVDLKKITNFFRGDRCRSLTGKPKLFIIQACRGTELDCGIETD
T2 sequence (P42574 176-277 limits assumed): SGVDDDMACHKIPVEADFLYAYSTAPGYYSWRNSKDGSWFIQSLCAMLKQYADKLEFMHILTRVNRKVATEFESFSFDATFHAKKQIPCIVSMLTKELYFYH
Protocol: as §1, §2, §3

MCH-2 = target: T3, MCH-2 (Homo sapiens, UniProt P55212); assay: Fluorescence enzyme assay, IC50 determination, Mch2; settings: Table 3; method of Preparation 3A; read-out: MCH2 I50
T3 sequence (P55212 24-179 limits assumed): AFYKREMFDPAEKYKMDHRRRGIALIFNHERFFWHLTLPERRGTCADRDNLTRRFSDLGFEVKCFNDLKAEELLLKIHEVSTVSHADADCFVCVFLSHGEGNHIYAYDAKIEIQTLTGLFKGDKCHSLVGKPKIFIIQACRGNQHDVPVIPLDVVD
T3 sequence (P55212 194-293 limits assumed): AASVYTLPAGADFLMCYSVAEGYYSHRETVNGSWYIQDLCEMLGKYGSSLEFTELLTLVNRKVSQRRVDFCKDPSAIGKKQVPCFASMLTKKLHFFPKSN
Protocol: as §1, §2, §3

MCH-3 = target: T4, MCH-3 (Homo sapiens, UniProt P55210); assay: Fluorescence enzyme assay, IC50 determination, Mch3; settings: Table 3; method of Preparation 3A; read-out: MCH3 I50
T4 sequence (P55210 24-198 limits assumed): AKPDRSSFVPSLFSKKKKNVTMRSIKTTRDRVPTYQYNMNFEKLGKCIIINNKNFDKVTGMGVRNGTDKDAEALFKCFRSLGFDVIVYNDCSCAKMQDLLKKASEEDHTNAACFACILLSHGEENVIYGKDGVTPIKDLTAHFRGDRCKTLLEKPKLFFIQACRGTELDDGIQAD
T4 sequence (P55210 207-303 limits assumed): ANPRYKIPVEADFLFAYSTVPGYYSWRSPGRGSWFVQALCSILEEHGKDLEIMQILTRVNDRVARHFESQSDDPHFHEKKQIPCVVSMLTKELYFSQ
Protocol: as §1, §2, §3

MCH-5 = MCH-5 (Homo sapiens, UniProt Q14790); assay: Fluorescence enzyme assay, IC50 determination, Mch5; settings: Table 3; method of Preparation 3A; read-out: MCH5 I50
Protocol: as §1, §2, §3

Chain of MCH-5 (Q14790 217-374 limits assumed, species assumed): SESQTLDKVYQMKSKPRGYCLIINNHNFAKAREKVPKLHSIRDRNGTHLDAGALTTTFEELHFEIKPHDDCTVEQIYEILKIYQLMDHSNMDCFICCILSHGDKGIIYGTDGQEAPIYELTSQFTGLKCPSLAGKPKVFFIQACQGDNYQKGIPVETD
Chain of MCH-5 (Q14790 385-479 limits assumed, species assumed): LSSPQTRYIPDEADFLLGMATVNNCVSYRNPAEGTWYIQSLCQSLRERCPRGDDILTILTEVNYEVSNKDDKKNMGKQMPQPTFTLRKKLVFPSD

IC50 (mICE) [µM] | IC50 (CPP32) [µM] | IC50 (MCH-2) [µM] | IC50 (MCH-3) [µM] | IC50 (MCH-5) [µM] | SMILES
0.408 | 0.967 | 11.8 | 11.3 | 11.2 | CC(C)C[C@H](NC(=O)CCC(=O)c1cccc2ccccc12)C(=O)N[C@H](C=O)CC(=O)O [Example 19]
4.55 | 9.88 | 24.9 | 29.8 | 3.25 | CC(C)C[C@H](NC(=O)C(C)CC(=O)c1cccc2ccccc12)C(=O)N[C@H](C=O)CC(=O)O (some centres unmarked) [Example 20]
0.543 | 1.42 | 10.3 | 7.43 | 5.23 | CC(C)C[C@H](NC(=O)CCC(=O)c1ccc2ccccc2c1)C(=O)N[C@H](C=O)CC(=O)O [Example 21]
1.32 | 0.91 | 5.9 | 9.65 | 15.2 | CC(C)C[C@H](NC(=O)CCOc1ccc2ccccc2c1)C(=O)N[C@H](C=O)CC(=O)O [Example 23]
0.563 | 0.412 | 2.72 | 3.6 | 16.3 | CC(C)C[C@H](NC(=O)CCSc1cccc2ccccc12)C(=O)N[C@H](C=O)CC(=O)O [Example 24]
0.611 | 0.837 | 1.62 | 5.89 | 15 | CC(C)C[C@H](NC(=O)CCSc1ccc2ccccc2c1)C(=O)N[C@H](C=O)CC(=O)O [Example 25]
0.843 | 0.375 | 32.4 | 4.16 | 4.14 | Cc1ccc2ccccc2c1OCC(=O)N[C@@H](CC(C)C)C(=O)N[C@H](C=O)CC(=O)O [Example 26]
0.831 | 0.263 | 22.6 | 4.08 | 1.45 | COc1ccc(OCC(=O)N[C@@H](CC(C)C)C(=O)N[C@H](C=O)CC(=O)O)c2ccccc12 [Example 27]
0.429 | 0.231 | 12 | 3.38 | 1.69 | CC(C)C[C@H](NC(=O)COc1ccc(Cl)c2ccccc12)C(=O)N[C@H](C=O)CC(=O)O [Example 28]
0.141 | 0.357 | 21.4 | 3.61 | 3.04 | CC(C)C[C@H](NC(=O)COc1c(Cl)cc(Cl)c2ccccc12)C(=O)N[C@H](C=O)CC(=O)O [Example 29]
44.2 | 1.57 | > 50 | 34.7 | > 50 | CC(C)C[C@H](NC(=O)COc1nccc2ccccc12)C(=O)N[C@H](C=O)CC(=O)O [Example 30]
35.3 | 0.232 | > 50 | 4.57 | > 50 | CC(C)C[C@H](NC(=O)COc1ccnc2ccccc12)C(=O)N[C@H](C=O)CC(=O)O [Example 31]
5.25 | 0.412 | > 50 | 3.85 | 4.02 | CC(C)C[C@H](NC(=O)COc1cccc2ncccc12)C(=O)N[C@H](C=O)CC(=O)O [Example 32]
5.14 | 0.407 | 42.7 | 3.48 | 3.64 | CC(C)C[C@H](NC(=O)COc1cccc2cnccc12)C(=O)N[C@H](C=O)CC(=O)O [Example 33]
13.7 | 0.147 | 12.5 | 1.51 | 2.24 | CC(C)C[C@H](NC(=O)COc1cccc2cccnc12)C(=O)N[C@H](C=O)CC(=O)O [Example 34]
20.4 | 1.77 | > 10 | 8.27 | > 10 | CC(C)C[C@H](NC(=O)C(C)Oc1ccccc1)C(=O)N[C@H](C=O)CC(=O)O (some centres unmarked) [Example 36]
9.42 | 0.419 | > 50 | 6.04 | > 10 | CC(C)C[C@H](NC(=O)CCOc1ccccc1)C(=O)N[C@H](C=O)CC(=O)O [Example 37]
> 10 | 3.4 | > 50 | > 10 | > 10 | CC(C)C[C@H](NC(=O)COc1ccccc1)C(=O)N[C@H](C=O)CC(=O)O [Example 38]
0.636 | 0.095 | 0.717 | 2.02 | 1.71 | CC(C)C[C@H](NC(=O)COc1ccccc1-c1ccccc1)C(=O)N[C@H](C=O)CC(=O)O [Example 39]
1.1 | 0.311 | 14.5 | 3.75 | 3.86 | CC(C)C[C@H](NC(=O)COc1cccc(-c2ccccc2)c1)C(=O)N[C@H](C=O)CC(=O)O [Example 40]
1.9 | 0.763 | 20.5 | 12 | 7.53 | CC(C)C[C@H](NC(=O)COc1ccc(-c2ccccc2)cc1)C(=O)N[C@H](C=O)CC(=O)O [Example 41]
0.521 | 0.49 | 10.1 | 3.36 | 6.05 | CC(C)C[C@H](NC(=O)COc1ccccc1Cc1ccccc1)C(=O)N[C@H](C=O)CC(=O)O [Example 42]
1.8 | 0.346 | 18.9 | 4.41 | 4.72 | CC(C)C[C@H](NC(=O)COc1ccc(Cc2ccccc2)cc1)C(=O)N[C@H](C=O)CC(=O)O [Example 43]
2.21 | 0.545 | 21.2 | 6.82 | 9.28 | CC(C)C[C@H](NC(=O)COc1ccc(Oc2ccccc2)cc1)C(=O)N[C@H](C=O)CC(=O)O [Example 44]
2.4 | 0.222 | 9.75 | 2.2 | 4.34 | CC(C)C[C@H](NC(=O)COc1ccccc1OCc1ccccc1)C(=O)N[C@H](C=O)CC(=O)O [Example 45]
2.51 | 0.57 | 33.4 | 7.25 | 8.6 | CC(C)C[C@H](NC(=O)COc1ccc(OCc2ccccc2)cc1)C(=O)N[C@H](C=O)CC(=O)O [Example 46]
1.81 | 0.324 | 11.8 | 2.74 | 1.75 | CC(C)C[C@H](NC(=O)COc1cccc2c1CCCC2)C(=O)N[C@H](C=O)CC(=O)O [Example 51]
2.57 | 0.162 | 28.6 | 2.31 | 4.95 | CC(C)C[C@H](NC(=O)COc1ccc2c(c1)CCCC2)C(=O)N[C@H](C=O)CC(=O)O [Example 52]

Source: US7157430B2, “(Substituted)acyl dipeptidyl inhibitors of the ICE/CED-3 family of cysteine proteases” (Idun Pharmaceuticals, Inc., priority 1998, dated 2007)
